According to patent US9783536B2, “Nitrogen-containing heterocyclic compound or salt thereof” (FUJIFILM Corporation, priority 2013, dated 2017):
Structures can show the parent of a compound that is named as a salt. Where two headings read alike, the source gives them in different places.

How the values were obtained:
[1] = target: T1, GST fusion human ERK2 protein (Homo sapiens, UniProt P28482); experiment: ERK2 enzyme assay (2); format: biochemical; settings: read-out: ERK2 enzyme inhibitory activity (2)
T1 construct: purchased Carna Biosciences, Inc; host or cells: E. coli expression system
In short: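 GST-tagged human ERK2 expressed in E. coli (1.25 nmol/L) was preincubated with compound for 15 min at room temperature in pH 7.5 Hepes buffer with MgCl2, DTT and Brij35. Reaction with FL-Peptide 8 (final 4.25 μmol/L) and ATP (final 1 mmol/L) ran 120 min at 25 °C; EDTA stopped it, and phosphorylated peptide was quantified by mobility-shift separation to derive IC50.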

[2] = target: T2, human PI3Kα protein (Homo sapiens, UniProt P42336); experiment: PI3Kα enzyme assay (ADP-Glo); format: biochemical; settings: read-out: PI3Kα enzyme inhibitory activity
T2 construct: purchased Carna Biosciences, Inc; host or cells: baculovirus expression system
In short: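 Biotinylated human PI3Kα (baculovirus-expressed, 4.5 nmol/L) pre-incubated 15 min with compound in Tris-HCl pH 7.5, MgCl2, BSA; reaction 60 min at 25° C with 50 μmol/L PIP2 and 100 μmol/L ATP final. ADP quantified by ADP-Glo luminescence; IC50 calculated.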

T1 sequence (P28482 whole entry, the tested form may be a part): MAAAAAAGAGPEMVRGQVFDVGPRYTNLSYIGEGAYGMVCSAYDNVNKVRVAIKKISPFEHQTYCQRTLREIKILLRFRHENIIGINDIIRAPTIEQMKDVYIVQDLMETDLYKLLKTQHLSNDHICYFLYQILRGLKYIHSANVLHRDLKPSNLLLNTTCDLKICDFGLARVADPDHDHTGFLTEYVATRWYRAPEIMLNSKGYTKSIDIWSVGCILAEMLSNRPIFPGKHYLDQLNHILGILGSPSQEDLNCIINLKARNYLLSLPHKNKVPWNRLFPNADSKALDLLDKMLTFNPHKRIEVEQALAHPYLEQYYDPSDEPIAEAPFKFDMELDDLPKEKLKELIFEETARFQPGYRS
T2 sequence (P42336 whole entry): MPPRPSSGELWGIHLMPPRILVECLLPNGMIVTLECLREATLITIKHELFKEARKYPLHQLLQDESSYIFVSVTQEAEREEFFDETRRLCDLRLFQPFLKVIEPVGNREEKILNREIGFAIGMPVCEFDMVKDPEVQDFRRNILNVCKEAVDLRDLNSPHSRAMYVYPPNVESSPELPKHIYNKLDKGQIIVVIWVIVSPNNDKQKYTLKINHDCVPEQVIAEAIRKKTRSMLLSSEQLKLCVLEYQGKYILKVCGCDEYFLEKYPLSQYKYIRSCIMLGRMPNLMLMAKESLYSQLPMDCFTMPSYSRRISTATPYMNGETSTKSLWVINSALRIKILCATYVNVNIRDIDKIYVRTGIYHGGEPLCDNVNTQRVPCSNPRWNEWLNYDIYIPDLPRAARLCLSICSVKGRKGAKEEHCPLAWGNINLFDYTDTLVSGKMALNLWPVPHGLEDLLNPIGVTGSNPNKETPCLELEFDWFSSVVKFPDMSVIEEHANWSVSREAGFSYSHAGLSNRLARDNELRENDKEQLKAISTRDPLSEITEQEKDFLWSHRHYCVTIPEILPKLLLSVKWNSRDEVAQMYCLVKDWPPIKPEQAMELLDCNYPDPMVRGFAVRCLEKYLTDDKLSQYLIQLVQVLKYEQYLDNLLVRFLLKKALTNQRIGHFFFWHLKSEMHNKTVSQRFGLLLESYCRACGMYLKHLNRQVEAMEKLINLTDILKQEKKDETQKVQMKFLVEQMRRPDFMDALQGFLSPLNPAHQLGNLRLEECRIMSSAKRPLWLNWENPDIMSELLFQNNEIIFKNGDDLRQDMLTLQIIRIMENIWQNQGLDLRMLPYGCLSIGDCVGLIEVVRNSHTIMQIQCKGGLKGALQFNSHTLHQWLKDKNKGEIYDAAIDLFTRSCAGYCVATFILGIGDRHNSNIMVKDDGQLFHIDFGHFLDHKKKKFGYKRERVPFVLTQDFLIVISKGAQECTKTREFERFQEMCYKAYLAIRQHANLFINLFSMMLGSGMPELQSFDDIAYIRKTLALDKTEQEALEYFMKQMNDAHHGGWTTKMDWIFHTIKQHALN
T2 sequence (P27986 whole entry partner): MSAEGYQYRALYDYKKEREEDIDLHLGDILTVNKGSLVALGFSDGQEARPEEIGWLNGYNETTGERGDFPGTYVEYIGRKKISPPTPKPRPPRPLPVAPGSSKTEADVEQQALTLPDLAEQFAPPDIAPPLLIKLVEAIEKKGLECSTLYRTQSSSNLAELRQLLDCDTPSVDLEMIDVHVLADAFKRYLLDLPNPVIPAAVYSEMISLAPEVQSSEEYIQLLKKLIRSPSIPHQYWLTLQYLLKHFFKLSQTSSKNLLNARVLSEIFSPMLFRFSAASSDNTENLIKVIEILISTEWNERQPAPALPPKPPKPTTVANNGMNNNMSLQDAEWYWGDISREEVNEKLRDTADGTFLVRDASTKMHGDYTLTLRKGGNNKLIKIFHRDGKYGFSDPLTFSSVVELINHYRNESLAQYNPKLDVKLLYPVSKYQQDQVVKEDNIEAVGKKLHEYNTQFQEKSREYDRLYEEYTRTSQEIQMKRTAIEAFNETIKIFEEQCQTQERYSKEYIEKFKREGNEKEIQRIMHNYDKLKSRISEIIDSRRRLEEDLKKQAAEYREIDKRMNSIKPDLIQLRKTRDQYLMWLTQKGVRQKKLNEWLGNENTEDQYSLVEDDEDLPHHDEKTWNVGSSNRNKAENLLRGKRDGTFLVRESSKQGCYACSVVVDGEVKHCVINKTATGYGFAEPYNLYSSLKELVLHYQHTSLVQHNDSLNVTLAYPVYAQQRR

SMILES | IC50 ([1]; ERK2 enzyme assay (2)) [µM] | IC50 [2] [µM] | IC50 [1] [µM]
CC(C)c1cnnc(Nc2ccc3ncc(-c4cnn(CCOC5CN(C(C)C)C5)c4)cc3n2)c1 [Example 0742] | < 1 | < 1 | –
CC(C)c1cnnc(Nc2ccc3ncc(C(N)=O)cc3n2)c1 [Example 0640, 6-((5-isopropylpyridazin-3-yl)amino)-1,5-naphthyridine-3-carboxamide] | < 1 | 1 to 10 | –
COc1ccc(Cn2cc(-c3cnc4ccc(Nc5cc(C(C)C)cnn5)nc4c3)cn2)cn1 [Example 0453, N-(5-isopropylpyridazin-3-yl)-7-(1-((6-methoxypyridin-3-yl)methyl)-1H-pyrazol-4-yl)-1,5-naphthyridine-2-amine] | < 1 | < 1 | –
Cc1nn(C)cc1-c1cnc2ccc(Nc3cc(CS(=O)(=O)N(C)C)cnn3)nc2c1 [Example 0925, 1-(6-((7-(1,3-Dimethyl-1H-pyrazol-4-yl)-1,5-naphthyridin-2-yl)amino)pyridazin-4-yl)-N,N-dimethylmethane sulfonamide] | – | < 1 | < 1
CC(C)c1cnnc(Nc2ccc3ncc(-c4cnn(CCCN(C)CC(=O)O)c4)cc3n2)c1 [Example 0667, 2-((3-(4-(6-((5-isopropylpyridazin-3-yl)amino)-1,5-naphthyridin-3-yl)-1H-pyrazol-1-yl)propyl) (methyl)amino)acetic acid] | < 1 | < 1 | –
CC(C)c1cnnc(Nc2ccc3ncc(-c4cn(C)nc4N(C)c4cccnc4)cc3n2)c1 [Example 0802] | < 1 | < 1 | –
CC(=O)N1CCC(n2cc(-c3cnc4ccc(Nc5cc(C(C)C)cnn5)nc4c3)cn2)CC1 [Example 0478, 1-(4-(4-(6-((5-Isopropylpyridazin-3-yl)amino)-1,5-naphthyridin-3-yl)-1H-pyrazol-1-yl)piperidin-1-yl)ethanone] | < 1 | < 1 | –
CCOc1cnnc(Nc2ccc3ncc(-c4cnn(C)c4)cc3n2)c1 [Example 0499] | < 1 | < 1 | –
CC(C)c1cnnc(Nc2ccc3ncc(-c4cccn(C)c4=O)cc3n2)c1 [Example 0595, 3-(6-((5-Isopropylpyridazin-3-yl)amino)-1,5-naphthyridin-3-yl)-1-methylpyridin-2(1H)-one] | < 1 | 1 to 10 | –
COC1CN(c2nn(C)cc2-c2cnc3ccc(Nc4cc(C(C)C)cnn4)nc3c2)C1 [Example 0930] | – | < 1 | < 1
CC(C)(O)c1cnnc(Nc2ccc3ncc(-c4cnn(CC5CCOCC5)c4)cc3n2)c1 [Example 0783] | < 1 | < 1 | –
CC(C)c1cnnc(Nc2ccc3ncc(-c4cnn(C[C@H]5CCC(=O)N5)c4)cc3n2)c1 [Example 0566] | < 1 | < 1 | –
CC(C)c1cnnc(Nc2ccc3ncc(-c4cnn(CC5CCN(C(=O)N6CCOCC6)CC5)c4)cc3n2)c1 [Example 0532] | < 1 | < 1 | –
CCn1cc(-c2cnc3ccc(Nc4cc(C(C)C)cnn4)nc3c2)cn1 [Example 0440, 7-(1-Ethyl-1H-pyrazol-4-yl)-N-(5-isopropylpyridazin-3-yl)-1,5-naphthyridine-2-amine] | < 1 | < 1 | –
CC(C)c1cnnc(Nc2ccc3ncc(-c4cn(C)nc4COC4CN(C(=O)OC(C)(C)C)C4)cc3n2)c1 [Example 0821, tert-Butyl 3-((4-(6-((5-isopropylpyridazin-3-yl)amino)-1,5-naphthyridin-3-yl)-1-methyl-1H-pyrazol-3-yl)methoxy)azetidine-1-carboxylate] | < 1 | < 1 | –
CC(C)c1cnnc(Nc2ccc3ncc(-c4cnn(CCN5CCC5)c4)cc3n2)c1 [Example 0611] | < 1 | < 1 | –
COC(CN1CC(OC(F)F)C1)Cn1cc(-c2cnc3ccc(Nc4cc(C(C)C)cnn4)nc3c2)cn1 (stereo not shown) [Example 0813, 7-(1-(3-(3-(Difluoromethoxy)azetidin-1-yl)-2-methoxypropyl)-1H-pyrazol-4-yl)-N-(5-isopropylpyridazin-3-yl)-1,5-naphthyridine-2-amine] | < 1 | < 1 | –
CC(C)c1cnnc(Nc2ccc3ncc(C4=CCNCC4)cc3n2)c1 [Example 0881, N-(5-isopropylpyridazin-3-yl)-7-(1,2,3,6-tetrahydropyridin-4-yl)-1,5-naphthyridine-2-amine] | < 1 | 1 to 10 | –
CC(C)c1cnnc(Nc2ccc3ncc(N4CCC(F)(F)C4)cc3n2)c1 [Example 0893] | < 1 | < 1 | –
CC(C)c1cnnc(Nc2ccc3ncc(-c4cnn(Cc5ccc([N+](=O)[O-])cc5)c4)cc3n2)c1 [Example 0716] | < 1 | < 1 | –
CC(C)c1cnnc(Nc2ccc3ncc(-c4cn(C)nc4NC4CN(C)C4)cc3n2)c1 [Example 0827, N-(5-isopropylpyridazin-3-yl)-7-(1-methyl-3-((1-methylazetidin-3-yl)amino)-1H-pyrazol-4-yl)-1,5-naphthyridine-2-amine] | < 1 | < 1 | –
CNc1nn(C)cc1-c1cnc2ccc(Nc3cc(C(C)C)cnn3)nc2c1 [Example 0683, N-(5-isopropylpyridazin-3-yl)-7-(1-methyl-3-(methylamino)-1H-pyrazol-4-yl)-1,5-naphthyridine-2-amine hydrochloride] | < 1 | < 1 | –

SMILES | IC50 ([1]; ERK2 enzyme assay (2)) [µM] | IC50 [2] [µM] | IC50 [1] [µM]
CC(C)c1cnnc(Nc2ccc3ncc(-c4cnn(Cc5ccc(N)nc5)c4)cc3n2)c1 [Example 0464] | < 1 | < 1 | –
CC(C)c1cnnc(Nc2ccc3ncc(-c4cnn(CCCN(C)CC(F)(F)F)c4)cc3n2)c1 [Example 0700, N-(5-isopropylpyridazin-3-yl)-7-(1-(3-(methyl (2,2,2-trifluoroethyl)amino)propyl)-1H-pyrazol-4-yl)-1,5-naphthyridine-2-amine] | < 1 | < 1 | –
CC(C)c1cnnc(Nc2ccc3ncc(-c4cnn(CC(F)F)c4)cc3n2)c1 [Example 0467] | < 1 | < 1 | –
CC(C)c1cnnc(Nc2ccc3ncc(NC4CN(C(=O)OC(C)(C)C)C4)cc3n2)c1 [Example 0891] | < 1 | 1 to 10 | –
Cc1nn(C)cc1-c1cnc2ccc(Nc3cc(C(C)C)cnn3)nc2c1C [Example 0852, 7-(1,3-Dimethyl-1H-pyrazol-4-yl)-N-(5-isopropylpyridazin-3-yl)-8-methyl-1,5-naphthyridine-2-amine] | < 1 | < 1 | –
CC(=O)N1CCN(CCCn2cc(-c3cnc4ccc(Nc5cc(C(C)C)cnn5)nc4c3)cn2)CC1 [Example 0434] | < 1 | < 1 | –
CC(C)c1cnnc(Nc2ccc3ncc(-c4cn(C)nc4NC4CCCC4)cc3n2)c1 [Example 0948] | – | < 1 | < 1
CC(C)c1cnnc(Nc2ccc3ncc(-n4cnc(CC#N)c4)cc3n2)c1 [Example 0508, 2-(1-(6-((5-Isopropylpyridazin-3-yl)amino)-1,5-naphthyridin-3-yl)-1H-imidazol-4-yl)acetonitrile] | < 1 | < 1 | –
CC(C)c1cnnc(Nc2ccc3ncc(-c4cnn(C)c4-c4cccnc4)cc3n2)c1 [Example 0575] | < 1 | < 1 | –
CC(C)c1cnnc(Nc2ccc3ncc(-c4cnn(CCCN5CC(OCC6CC6)C5)c4)cc3n2)c1 [Example 0709] | < 1 | < 1 | –
CC(C)c1cnnc(Nc2ccc3ncc(-c4cnn(Cc5ccc(N)cc5)c4)cc3n2)c1 [Example 0717, 7-(1-(4-Aminobenzyl)-1H-pyrazol-4-yl)-N-(5-isopropylpyridazin-3-yl)-1,5-naphthyridine-2-amine] | < 1 | < 1 | –
Cc1nn(C)cc1-c1cnc2ccc(Nc3cc(C4(C)CC4)cnn3)nc2c1 [Example 0885, 7-(1,3-Dimethyl-1H-pyrazol-4-yl)-N-(5-(1-methylcyclopropyl)pyridazin-3-yl)-1,5-naphthyridine-2-amine] | < 1 | < 1 | –
Cn1cc(-c2cnc3ccc(Nc4cc(N5CCCC5)cnn4)nc3c2)cn1 [Example 0520] | < 1 | 1 to 10 | –
CC(C)c1cnnc(Nc2ccc3ncc(-c4cnn(CCCN5CC(C(N)=O)C5)c4)cc3n2)c1 [Example 0670] | < 1 | < 1 | –
COC1(C)CN(c2cnc3ccc(Nc4cc(C(C)C)cnn4)nc3c2)C1 [Example 0859] | < 1 | 1 to 10 | –
CC(C)c1cnnc(Nc2ccc3ncc(-c4cnn(CCCN5CCN(c6cccnc6)CC5)c4)cc3n2)c1 [Example 0446] | < 1 | < 1 | –
Cc1nn(C)cc1-c1cnc2ccc(Nc3cc(C4CC4)cnn3)nc2c1 [Example 0565] | < 1 | < 1 | –
CC(C)c1cnnc(Nc2ccc3ncc(-c4cn(C)nc4-c4ccc(OCCN5CCCCC5)cc4)cc3n2)c1 [Example 0778] | < 1 | < 1 | –
COCCn1cc(-c2nn(C)cc2-c2cnc3ccc(Nc4cc(C(C)C)cnn4)nc3c2)cn1 [Example 0784] | < 1 | < 1 | –
CCCCOC1CN(c2cnc3ccc(Nc4cc(C(C)C)cnn4)nc3c2)C1 [Example 0870] | 1 to 10 | 1 to 10 | –
CCC(C)c1cnnc(Nc2ccc3ncc(-c4cn(C)nc4C)cc3n2)c1 (stereo not shown) [Example 0916] | – | < 1 | < 1
CC(C)c1cnnc(Nc2ccc3ncc(-c4cnn(CCCN5CCN(c6ccccn6)CC5)c4)cc3n2)c1 [Example 0444] | < 1 | < 1 | –
